Values of other authors in patent US10813968B2, “Method of treating a human suffering from post exercise muscle soreness” (Provexis Natural Products Limited, priority 2012, dated 2020).

Settings: 3 hours after supplementation supplying 200 μg folic acid

- typical plasma folate concentration: 5 ng/mL
SMILES: Nc1nc2ncc(CNc3ccc(C(=O)N[C@@H](CCC(=O)O)C(=O)O)cc3)nc2c(=O)[nH]1 [folic acid]
